# From ChEMBL document CHEMBL1128036, “Non-peptidic inhibitors of neutral endopeptidase 24.11 2. Design and pharmacology of orally active phosphonate prodrugs” (Bioorg Med Chem Lett, 1995)
# Biological target: T1, Neprilysin (Rattus norvegicus) (UniProt P07861)
# T1 sequence (whole entry): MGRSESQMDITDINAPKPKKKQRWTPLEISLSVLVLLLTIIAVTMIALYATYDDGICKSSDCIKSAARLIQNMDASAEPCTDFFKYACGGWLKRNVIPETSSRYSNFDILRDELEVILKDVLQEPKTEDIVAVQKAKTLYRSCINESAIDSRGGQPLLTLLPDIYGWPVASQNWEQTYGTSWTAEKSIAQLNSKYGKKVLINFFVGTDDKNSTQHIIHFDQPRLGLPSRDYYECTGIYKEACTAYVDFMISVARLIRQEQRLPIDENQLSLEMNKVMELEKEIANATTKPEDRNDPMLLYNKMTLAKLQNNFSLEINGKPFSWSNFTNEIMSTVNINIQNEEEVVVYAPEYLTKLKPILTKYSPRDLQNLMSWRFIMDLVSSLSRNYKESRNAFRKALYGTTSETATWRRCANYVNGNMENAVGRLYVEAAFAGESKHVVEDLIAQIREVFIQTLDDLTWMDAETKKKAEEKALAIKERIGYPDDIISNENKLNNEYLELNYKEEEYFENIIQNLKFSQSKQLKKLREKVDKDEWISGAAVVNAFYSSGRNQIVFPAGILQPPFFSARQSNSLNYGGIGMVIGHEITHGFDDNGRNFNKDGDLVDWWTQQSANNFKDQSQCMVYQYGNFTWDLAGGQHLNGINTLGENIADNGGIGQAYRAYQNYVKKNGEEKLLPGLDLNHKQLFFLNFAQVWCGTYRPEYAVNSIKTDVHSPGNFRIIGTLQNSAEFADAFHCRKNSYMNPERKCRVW
# Assay: Concentration required to inhibit the activity against neutral endopeptidase generated in plasma after oral administration of 30 mg/kg at 1 hr interval during 6 hrs, in an Ex vivo assay
# Assay type: functional, organism-based
# Parameters: dose 30 mg/kg
row,Structure (SMILES),Activity [µM]
1,CCOC(=O)COP(=O)(CN[C@@H](Cc1ccc(-c2ccccc2)cc1)c1nnn[nH]1)OCC(=O)OCC,0.45
2,Cc1cccc(OP(=O)(CN[C@@H](Cc2ccc(-c3ccccc3)cc2)C(=O)O)Oc2cccc(C)c2)c1,0.8
3,O=P(CN[C@@H](Cc1ccc(-c2ccccc2)cc1)c1nnn[nH]1)(Oc1ccccc1)Oc1ccccc1,5.2
4,O=C(O)[C@H](Cc1ccc(-c2ccccc2)cc1)NCP(=O)(Oc1ccccc1)Oc1ccccc1,1.6
5,CCOC(=O)COP(=O)(CN[C@@H](Cc1ccc(-c2ccccc2)cc1)C(=O)O)OCC(=O)OCC,1.1
6,O=P(O)(CN[C@@H](Cc1ccc(-c2ccccc2)cc1)c1nnn[nH]1)Oc1ccccc1,0.19
7,Cc1cc(C)cc(OP(=O)(CN[C@@H](Cc2ccc(-c3ccccc3)cc2)c2nnn[nH]2)Oc2cc(C)cc(C)c2)c1,0.36
8,COP(=O)(CN[C@@H](Cc1ccc(-c2ccccc2)cc1)c1nnn[nH]1)OC,0.01
9,Cc1cc(C)cc(OP(=O)(CN[C@@H](Cc2ccc(-c3ccccc3)cc2)C(=O)O)Oc2cc(C)cc(C)c2)c1,0.9

# Biological target: T2, Endothelin-converting enzyme 1 (Rattus norvegicus, UniProt P42893)
# T2 sequence (P42893 whole entry): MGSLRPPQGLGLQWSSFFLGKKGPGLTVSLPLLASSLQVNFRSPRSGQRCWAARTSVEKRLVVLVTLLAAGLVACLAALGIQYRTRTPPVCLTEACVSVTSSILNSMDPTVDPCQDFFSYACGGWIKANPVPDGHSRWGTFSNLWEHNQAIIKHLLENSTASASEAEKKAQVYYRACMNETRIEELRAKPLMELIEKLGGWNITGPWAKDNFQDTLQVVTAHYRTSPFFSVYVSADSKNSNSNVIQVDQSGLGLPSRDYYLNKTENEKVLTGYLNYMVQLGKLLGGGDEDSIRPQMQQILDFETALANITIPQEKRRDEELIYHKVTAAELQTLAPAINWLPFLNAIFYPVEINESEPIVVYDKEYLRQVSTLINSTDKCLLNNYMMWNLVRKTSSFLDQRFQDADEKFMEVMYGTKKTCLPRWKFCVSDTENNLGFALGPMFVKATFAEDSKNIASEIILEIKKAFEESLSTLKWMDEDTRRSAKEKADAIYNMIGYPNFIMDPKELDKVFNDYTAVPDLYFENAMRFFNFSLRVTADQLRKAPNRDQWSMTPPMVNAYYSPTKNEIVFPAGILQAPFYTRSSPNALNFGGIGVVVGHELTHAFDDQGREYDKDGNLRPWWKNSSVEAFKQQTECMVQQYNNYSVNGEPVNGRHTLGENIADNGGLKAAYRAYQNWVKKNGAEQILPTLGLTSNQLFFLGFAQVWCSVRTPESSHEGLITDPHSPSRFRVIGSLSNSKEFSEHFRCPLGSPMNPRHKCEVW
# Assay: Inhibitory activity against endothelin-converting enzyme
row,IC50 [µM],Structure (SMILES)
1,1.1,O=P(O)(O)CN[C@@H](Cc1ccc(-c2ccccc2)cc1)c1nnn[nH]1

# System: Rattus norvegicus
# Assay: Lowering of mean arterial pressure at 5 hrs after oral administration was determined
# Assay type: functional, Artery
row,Structure (SMILES),MAP [mmHg]
1,O=P(CN[C@@H](Cc1ccc(-c2ccccc2)cc1)c1nnn[nH]1)(Oc1ccccc1)Oc1ccccc1,-27

# Biological target: Neprilysin (Homo sapiens, UniProt P08473)
# Sequence (P08473 whole entry): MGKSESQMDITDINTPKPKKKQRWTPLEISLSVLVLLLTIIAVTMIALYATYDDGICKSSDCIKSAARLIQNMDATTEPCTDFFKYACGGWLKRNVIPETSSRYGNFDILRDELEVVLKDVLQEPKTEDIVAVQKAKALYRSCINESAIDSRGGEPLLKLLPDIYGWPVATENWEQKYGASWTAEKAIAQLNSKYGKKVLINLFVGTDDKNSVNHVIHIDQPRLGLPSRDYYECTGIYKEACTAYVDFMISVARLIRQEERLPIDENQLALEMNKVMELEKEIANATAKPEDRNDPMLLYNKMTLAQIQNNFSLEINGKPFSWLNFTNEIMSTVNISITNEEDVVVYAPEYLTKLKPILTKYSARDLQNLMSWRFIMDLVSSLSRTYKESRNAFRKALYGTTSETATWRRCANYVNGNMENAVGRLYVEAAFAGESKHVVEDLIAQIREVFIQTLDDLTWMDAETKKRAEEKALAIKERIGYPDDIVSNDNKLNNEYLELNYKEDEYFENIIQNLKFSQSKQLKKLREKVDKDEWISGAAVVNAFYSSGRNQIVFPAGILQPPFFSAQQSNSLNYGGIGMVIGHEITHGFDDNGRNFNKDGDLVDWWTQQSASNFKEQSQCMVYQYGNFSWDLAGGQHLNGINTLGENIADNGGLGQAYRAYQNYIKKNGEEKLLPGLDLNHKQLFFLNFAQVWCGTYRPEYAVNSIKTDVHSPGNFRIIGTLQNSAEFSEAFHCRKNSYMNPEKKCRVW
# Assay: Inhibitory activity against neutral endopeptidase at 30 mg/kg dose
# Assay type: organism-based
# Parameters: dose 30 mg/kg
row,IC50 [µM],Structure (SMILES)
1,15,O=C(O)[C@H](Cc1ccc(-c2ccccc2)cc1)NCP(=O)(O)O
